Reference: the NIST ThermoML archive (doi:10.1021/acs.jced.7b00221)

Experiments:
[1] = 100 kPa, Liquid; for mass density: Vibrating tube method; for viscosity: Cone and plate viscometry
[2] = xn = mol fraction of the nth substance listed; settings: 100 kPa, Liquid, Cone and plate viscometry

CCCCCC[n+]1ccn(C)c1.O=S(=O)([N-]S(=O)(=O)C(F)(F)F)C(F)(F)F
[1]
Settings	mass density [kg/m3]
283.15 K	1385.6
288.15 K	1381
293.15 K	1376.5
295.15 K	1374.6
298.15 K	1371.9
303.15 K	1367.3
308.15 K	1362.8
313.15 K	1358.3
318.15 K	1353.7
323.15 K	1349.2
328.15 K	1344.7
333.15 K	1340.3
338.15 K	1335.8
343.15 K	1331.4
348.15 K	1326.9
353.15 K	1322.5

CCCCCCn1cc[n+](C)c1C.O=S(=O)([N-]S(=O)(=O)C(F)(F)F)C(F)(F)F
[1]
Settings	mass density [kg/m3]
283.15 K	1373
288.15 K	1368.4
293.15 K	1363.9
295.15 K	1362.1
298.15 K	1359.5
303.15 K	1355.1
308.15 K	1350.8
313.15 K	1346.4
318.15 K	1342
323.15 K	1337.6
328.15 K	1333.2
333.15 K	1328.9
338.15 K	1324.5
343.15 K	1320.2
348.15 K	1315.8
353.15 K	1311.5

CCCC[n+]1ccn(C)c1.O=S(=O)([N-]S(=O)(=O)C(F)(F)F)C(F)(F)F
[1]
Settings	mass density [kg/m3]	viscosity [mPa·s]
278.15 K	–	138
283.15 K	1451.1	104
288.15 K	1446.3	80
293.15 K	1441.5	63
295.15 K	1439.6	–
298.15 K	1436.8	51
303.15 K	1432	–
308.15 K	1427.3	–
313.15 K	1422.7	–
318.15 K	1418	–
323.15 K	1413.3	–
328.15 K	1408.7	–
333.15 K	1404.1	–
338.15 K	1399.4	–
343.15 K	1394.8	–
348.15 K	1390.2	–
353.15 K	1385.7	–

CC[P+](CC)(CC)COCCOC.O=S(=O)([N-]S(=O)(=O)C(F)(F)F)C(F)(F)F
[1]
Settings	viscosity [mPa·s]
278.15 K	84
283.15 K	65
288.15 K	51

CCn1cc[n+](C)c1.O=S(=O)([N-]S(=O)(=O)C(F)(F)F)C(F)(F)F
[1]
Settings	mass density [kg/m3]	viscosity [mPa·s]
278.15 K	–	80
283.15 K	1534.1	63
288.15 K	1529	50
293.15 K	1523.9	–
295.15 K	1521.9	–
298.15 K	1518.9	–
303.15 K	1513.9	–
308.15 K	1508.9	–
313.15 K	1503.9	–
318.15 K	1499	–
323.15 K	1494.1	–
328.15 K	1489.1	–
333.15 K	1484.2	–
338.15 K	1479.3	–
343.15 K	1474.4	–
348.15 K	1469.6	–
353.15 K	1464.7	–

CCCCCCn1cc[n+](C)c1.N#Cc1ccc[n-]1 [1-hexyl-3-methylimidazolium 2-cyanopyrrolide]
[1]
Settings	viscosity [mPa·s]
278.15 K	1540
283.15 K	902
288.15 K	553
293.15 K	355
298.15 K	239
303.15 K	167
308.15 K	122
313.15 K	91
318.15 K	70
323.15 K	55

CCCCCCCC[P+](CC)(CC)CC.O=[N+]([O-])c1cn[n-]c1 [triethyloctylphosphonium 4-nitropyrazolide]
[1]
Settings	mass density [kg/m3]
283.15 K	1040.7
288.15 K	1037.7
293.15 K	1034.6
295.15 K	1033.4
298.15 K	1031.5
303.15 K	1028.5
308.15 K	1025.5
313.15 K	1022.6
318.15 K	1019.6
323.15 K	1016.7
328.15 K	1013.8
333.15 K	1010.8
338.15 K	1007.9
343.15 K	1005
348.15 K	1002.1
353.15 K	999.2

CCCCCCCCCCCCCC[P+](CCCCCC)(CCCCCC)CCCCCC.N#Cc1ccc[n-]1 [trihexyl(tetradecyl)phosphonium 2-cyanopyrrolide]
[1]
Settings	viscosity [mPa·s]
278.15 K	1764
283.15 K	1179
288.15 K	804
293.15 K	563
298.15 K	404
303.15 K	297
308.15 K	223
313.15 K	170
318.15 K	133
323.15 K	106

CCCCCCCCCCCCCC[P+](CCCCCC)(CCCCCC)CCCCCC.O=[N+]([O-])c1cn[n-]c1 [trihexyl(tetradecyl)phosphonium 4-nitropyrazolide] + CCCCCC[n+]1ccn(C)c1.O=S(=O)([N-]S(=O)(=O)C(F)(F)F)C(F)(F)F
viscosity [mPa·s], [2]
Settings	278.15 K	283.15 K	288.15 K	293.15 K	298.15 K	303.15 K	308.15 K	313.15 K	318.15 K	323.15 K
x1 = 0.099	338	241	175	132	101	80	65	52	–	–
x1 = 0.2	528	367	261	191	144	111	88	70	57	–
x1 = 0.3	831	565	393	282	208	158	122	97	78	64
x1 = 0.501	1594	1055	715	499	357	264	199	153	120	96
x1 = 0.695	2474	1600	1061	726	512	371	276	209	162	128
x1 = 0.797	2704	1750	1158	788	554	400	296	222	171	134
x1 = 0.898	3071	1971	1297	880	614	441	325	244	187	146
